Results reported in ChEMBL document CHEMBL4665718, “Inhibitory effect of oolonghomobisflavan B on osteoclastogenesis by suppressing p38 MAPK activation” (Bioorg Med Chem Lett, 2020).
Activity calls are given as the source filed them. No cut-off for these calls is given here.

Columns and labels:
BMDM [1] = test: Modulation of NF-kappaB in Sprague-Dawley rat BMM assessed as inhibition of M-CSF/RANKL-induced osteoclast differentiation by measuring decrease in TRAP-positive multinucleated cells at 100 uM measured after 5 days by TRAP-staining based assay relative to control; format: tissue-based; settings: filed as modulator, time 5.0 day
BMDM [2] = test: Inhibition of RANKL-induced p38 activation in BMM (unknown origin) at 5 uM pretreated for 1 hr followed by RANKL stimulation for 5 to 15 mins by Western blot analysis; format: tissue-based
BMDM [3] = test: Inhibition of p38 MAPK in BMM (unknown origin) assessed as suppression of RANKL/M-CSF-induced MMP9 gene upregulation at 5 uM measured after 3 days by RT-PCR analysis; format: tissue-based; settings: time 3.0 day
BMDM [4] = test: Inhibition of p38 MAPK in BMM (unknown origin) assessed as suppression of RANKL/M-CSF-induced CTSK gene upregulation at 5 uM measured after 3 days by RT-PCR analysis; format: tissue-based; settings: time 3.0 day
BMDM [5] = test: Inhibition of p38 MAPK in BMM (unknown origin) assessed as inhibition of M-CSF/RANKL-induced osteoclastogenesis by measuring reduction in multinucleated TRAP+ cells measured after 4 days by TRAP-staining based analysis; format: cell-based; settings: dose microM 1-5, time 4.0 day
BMDM [6] = test: Inhibition of p38 MAPK in BMM (unknown origin) assessed as suppression of RANKL/M-CSF-induced Nftac1 gene upregulation at 5 uM measured after 3 days by RT-PCR analysis; format: tissue-based; settings: time 3.0 day
BMDM [7] = test: Inhibition of p38 MAPK in BMM (unknown origin) assessed as inhibition of M-CSF/RANKL-induced osteoclastogenesis by measuring reduction in multinucleated TRAP+ cells at 5 uM measured after 4 days by TRAP-staining based analysis relative to control; format: cell-based; settings: time 4.0 day
BMDM [8] = test: Inhibition of p38 MAPK in BMM (unknown origin) assessed as inhibition of RANKL/M-CSF-induced osteoclast differentiation by measuring reduction in TRAP-positive multinucleated cells at 5 uM treated on day 2-4 by TRAP staining based assay relative to control; settings: time 3.0 day
BMDM [9] = test: Inhibition of p38 MAPK in BMM (unknown origin) assessed as suppression of RANKL/M-CSF-induced CTSK upregulation at 5 uM measured after 3 days by Western blot analysis; format: tissue-based; settings: time 3.0 day
BMDM [10] = test: Inhibition of p38 MAPK in BMM (unknown origin) assessed as suppression of RANKL/M-CSF-induced actin ring formation at 5 uM incubated for 4 days by rhodamine phallodin/DAPI staining based analysis; settings: time 4.0 day
[11] = target: T1, NF-kappa-B inhibitor alpha (Homo sapiens) (UniProt P25963); test: Inhibition of RANKL-induced IkappaB-alpha activation in BMM (unknown origin) at 5 uM pretreated for 1 hr followed by RANKL stimulation for 5 to 15 mins by Western blot analysis; format: tissue-based
T1 sequence (whole entry): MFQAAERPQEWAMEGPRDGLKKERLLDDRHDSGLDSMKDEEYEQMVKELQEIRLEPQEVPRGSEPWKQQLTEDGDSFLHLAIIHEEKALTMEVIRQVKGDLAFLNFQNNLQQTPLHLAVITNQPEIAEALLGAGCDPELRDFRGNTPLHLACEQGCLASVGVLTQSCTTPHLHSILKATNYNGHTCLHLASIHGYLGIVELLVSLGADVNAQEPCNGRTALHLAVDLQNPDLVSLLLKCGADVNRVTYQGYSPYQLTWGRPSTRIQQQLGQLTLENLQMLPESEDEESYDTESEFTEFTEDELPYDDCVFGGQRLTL

BMDM [12] = test: Inhibition of p38 MAPK in BMM (unknown origin) assessed as suppression of RANKL/M-CSF-induced DCSTAMP gene upregulation at 5 uM measured after 3 days by RT-PCR analysis; format: tissue-based; settings: time 3.0 day
BMDM [13] = test: Inhibition of RANKL-induced Akt activation in BMM (unknown origin) at 5 uM pretreated for 1 hr followed by RANKL stimulation for 5 to 15 mins by Western blot analysis; format: tissue-based
BMDM [14] = test: Inhibition of M-CSF-induced Akt activation in BMM (unknown origin) at 5 uM pretreated for 1 hr followed by M-CSF stimulation for 5 to 30 mins by Western blot analysis; format: tissue-based
BMDM [15] = test: Inhibition of p38 MAPK in BMM (unknown origin) assessed as inhibition of RANKL/M-CSF-induced osteoclast differentiation by measuring reduction in TRAP-positive multinucleated cells at 5 uM treated on day 0-2 by TRAP staining based assay relative to control; format: tissue-based; settings: time 2.0 day
BMDM [16] = test: Inhibition of p38 MAPK in BMM (unknown origin) assessed as inhibition of RANKL/M-CSF-induced osteoclast differentiation by measuring reduction in TRAP-positive multinucleated cells at 5 uM treated on day 0-4 by TRAP staining based assay; settings: time 4.0 day
BMDM [17] = test: Inhibition of RANKL-induced ERK activation in BMM (unknown origin) at 5 uM pretreated for 1 hr followed by RANKL stimulation for 5 to 15 mins by Western blot analysis; format: tissue-based
BMDM [18] = test: Inhibition of M-CSF-induced ERK activation in BMM (unknown origin) at 5 uM pretreated for 1 hr followed by M-CSF stimulation for 5 to 30 mins by Western blot analysis; format: tissue-based
[19] = Cytotoxicity against BMM (unknown origin) assessed as reduction in cell viability at 5 uM after 3 days in presence of M-CSF by MTT assay; format: tissue-based; settings: bmdm, 72 h, time 3 day
BMDM [20] = test: Inhibition of p38 MAPK in BMM (unknown origin) assessed as suppression of RANKL/M-CSF-induced Nftac1 upregulation at 5 uM measured after 3 days by Western blot analysis; format: tissue-based; settings: time 3.0 day
BMDM [21] = test: Inhibition of RANKL-induced JNK activation in BMM (unknown origin) at 5 uM pretreated for 1 hr followed by RANKL stimulation for 5 to 15 mins by Western blot analysis; format: tissue-based
BMDM [22] = test: Inhibition of p38 MAPK in BMM (unknown origin) assessed as suppression of RANKL/M-CSF-induced Acp5 gene upregulation at 5 uM measured after 3 days by RT-PCR analysis; format: tissue-based; settings: time 3.0 day

O=C(O[C@@H]1Cc2c(O)cc(O)cc2O[C@@H]1c1cc(O)c(O)c(O)c1)c1cc(O)c(O)c(O)c1
inhibition (BMDM [1]): 92%

O=C(O[C@@H]1Cc2c(cc(O)c(Cc3c(O)cc(O)c4c3O[C@H](c3cc(O)c(O)c(O)c3)[C@H](OC(=O)c3cc(O)c(O)c(O)c3)C4)c2O)O[C@@H]1c1cc(O)c(O)c(O)c1)c1cc(O)c(O)c(O)c1
inhibition (BMDM [2]): Active | inhibition (BMDM [3]): Active | inhibition (BMDM [4]): Active | inhibition (BMDM [5]): Dose-dependent effect | inhibition (BMDM [6]): Active | inhibition (BMDM [7]): 98.1% | inhibition (BMDM [8]): 34.5% | inhibition (BMDM [9]): Active | inhibition (BMDM [10]): Active | inhibition [11]: inactive | inhibition (BMDM [12]): Active | inhibition (BMDM [13]): inactive | inhibition (BMDM [14]): inactive | inhibition (BMDM [15]): 95.9% | inhibition (BMDM [16]): Active | inhibition (BMDM [17]): inactive | inhibition (BMDM [18]): inactive | Activity [19]: Non-Toxic | inhibition (BMDM [20]): Active | inhibition (BMDM [21]): inactive | inhibition (BMDM [22]): Active
